The term IC50 denotes the point on the concentration scale where inhibition reaches its midpoint. The low end stands for inhibition by little substance, the high end for a need for much substance.

Here are results for 27 compounds from patent US11160770B2, “Compounds, compositions and methods for treating oxidative DNA damage disorders” (Indiana University Research and Technology Corporation, priority 2011, dated 2021).

redox function of APE1, sequence (P27695 whole entry): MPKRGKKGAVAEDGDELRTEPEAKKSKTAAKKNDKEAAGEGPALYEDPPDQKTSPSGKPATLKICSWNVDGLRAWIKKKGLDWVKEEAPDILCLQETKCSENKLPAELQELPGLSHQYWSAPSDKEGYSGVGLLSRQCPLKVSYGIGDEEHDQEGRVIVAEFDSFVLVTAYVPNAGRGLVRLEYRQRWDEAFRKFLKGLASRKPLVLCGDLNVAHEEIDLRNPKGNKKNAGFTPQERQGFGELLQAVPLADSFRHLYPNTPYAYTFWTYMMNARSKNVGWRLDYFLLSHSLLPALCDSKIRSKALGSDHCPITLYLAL

The test addresses redox function of APE1 (Homo sapiens, UniProt P27695). The test can be described thus: Redox EMSA Assay. The following applies: 0.02 mM DTT. The class given is biochemical. The protocol: EXAMPLE. Redox EMSA Assay. Conventional electrophoresis measuring Ape1 […] with 0.02 mM DTT is used to evaluate test compounds. Additional details are described in Fishel et al. Mol Cancer Ther. 2011 September; 10(9):1698-708 & Luo et al., Antioxid Redox Signal. 2008 November; 10(11):1853-67. […]
On the technique in general: In EMSA bound probe runs differently from free probe, usually more slowly.
The compound `CCC/C(=C\C1=C(OC)C(=O)c2ccccc2C1=O)C(=O)NC` [Example 1] returned an IC50 of 6.2 µM. Regarding `CCC/C(=C\C1=C(OC)C(=O)c2ccccc2C1=O)C(=O)N(C)C` [Example 2], it took 2.3 µM to reach half-maximal inhibition (IC50). Under `CCC/C(=C\C1=C(OC)C(=O)c2ccccc2C1=O)C(=O)NCC` [Example 3] stands 3.3 µM.

For `CCC/C(=C\C1=C(OC)C(=O)c2ccccc2C1=O)C(=O)N(CC)CC` [Example 5], the IC50 was < 1 µM. To `CCCC/C(=C\C1=C(C)C(=O)c2ccccc2C1=O)C(=O)NC` [Example 6] belongs 17 µM. Under `CCCC/C(=C\C1=C(C)C(=O)c2ccccc2C1=O)C(=O)N(C)C` [Example 7] stands 23 µM. Turning to `CCCC/C(=C\C1=C(C)C(=O)c2ccccc2C1=O)C(=O)NCC` [Example 8], the IC50 turned out to be 20 µM.

Regarding `CCCC/C(=C\C1=C(C)C(=O)c2ccccc2C1=O)C(=O)N(CC)CC` [Example 9], the IC50 came out at 120 µM. This IC50 is about 6-fold higher than that of the compound before. Under `CCCC/C(=C\C1=C(OC)C(=O)c2ccccc2C1=O)C(=O)NOC` [Example 10] stands < 1 µM; under `CCCC/C(=C\C1=C(C)C(=O)c2ccccc2C1=O)C(=O)NC1CC1` [Example 11], 14 µM. Under `CCCC/C(=C\C1=C(C)C(=O)c2ccccc2C1=O)C(=O)NC1CCCCC1` [Example 14] stands 98 µM. To `CCCC/C(=C\C1=C(C)C(=O)c2ccccc2C1=O)C(=O)N1CCNC(=O)C1` [Example 15] belongs 23 µM. The compound `CCCC/C(=C\C1=C(C)C(=O)c2ccccc2C1=O)C(=O)N(C)OC` [Example 16] gave an IC50 of 26 µM.

`CCCC/C(=C/C1=C(C)C(=O)c2ccccc2C1=O)C(=O)N1CCOCC1` [Example 17] had an IC50 of 25 µM. Under `CCCC/C(=C\C1=C(C)C(=O)c2ccccc2C1=O)C(=O)N1CCOCC1` [Example 18] stands 34 µM; under `CCCC/C(=C\C1=C(C)C(=O)c2ccccc2C1=O)C(=O)NCCOC` [Example 20], 94 µM. Under `CCCC/C(=C/C1=C(C)C(=O)c2ccccc2C1=O)C(=O)NCCOC` [Example 21] stands 40 µM; under `CCC/C(=C\C1=C(Cl)C(=O)c2ccccc2C1=O)C(=O)NOC` [Example 22], < 2.5 µM.

In turn, `CCC/C(=C\C1=C(Cl)C(=O)c2ccccc2C1=O)C(=O)N(CC)CC` [Example 23] displayed an IC50 of 2.5 µM. Under `CCC/C(=C\C1=C(O)C(=O)c2ccccc2C1=O)C(=O)O` [Example 24] stands > 10 µM; under `CCCC(=CC1=C(OC)C(=O)c2ccccc2C1=O)C(=O)N(CC)CC` [Example 25], 13 µM. To `CCCC(=CC1=C(OC)C(=O)c2ccccc2C1=O)C(=O)N(C)C` [Example 26] belongs 2.6 µM; to `CCCCCCCCC/C(=C\C1=C(C)C(=O)C(OC)=C(OC)C1=O)C(=O)NOC` [Example 29], 17 µM. Consider `CCCCCCCCC/C(=C\C1=C(C)C(=O)C(OC)=C(OC)C1=O)C(=O)N(C)CC(O)C(O)C(O)C(O)CO` (stereo not drawn) [Example 30], for which half-maximal inhibition (IC50) was put at 15 µM. This IC50 and that of the compound before are within 1.5-fold of each other.

Take `CCCC/C(=C\C1=C(C)C(=O)C(OC)=C(OC)C1=O)C(=O)N(C)OC` [Example 31]: the IC50 turned out to be 24 µM. To `CCCC/C(=C\C1=C(C)C(=O)c2ccccc2C1=O)C(=O)O` [Example 32] belongs 47 to 52 µM; to `CCCC/C(=C\C1=C(OC)C(=O)c2ccccc2C1=O)C(=O)O` [Example 33], 0.5 µM.
